ChEMBL document CHEMBL6078677, “Discovery and optimization of tetrahydroacridine derivatives as a novel class of antibiotics against multidrug-resistant Gram-positive pathogens by targeting type I signal peptidase and disrupting bacterial membrane” (Eur J Med Chem, 2025)
Converted amounts (≈) assume the structure as drawn.

What was measured:
Enterococcus faecium [1] = test: Antimicrobial activity against Enterococcus faecium QF31 harboring erythromycin resistance rRNA methylase B and chloramphenicol-florfenicol resistance methylase assessed as inhibition of visible growth of bacteria incubated for 20 hrs by broth microdilution method; assay type: functional
Streptococcus suis = test: Antimicrobial activity against Streptococcus suis P1/7 assessed as inhibition of visible growth of bacteria incubated for 20 hrs by broth microdilution method; assay type: functional
Enterococcus faecalis [2] = test: microbe, parasite or virus in culture; assay type: functional; settings: SF23-1, time 20 hrs
Description: Antimicrobial activity against Enterococcus faecalis SF23-1 harboring erythromycin-resistance rRNA methylase B, tetracycline efflux protein L and chloramphenicol-florfenicol resistance methylase assessed as inhibition of visible growth of bacteria incubated for 20 hrs by broth microdilution method

Staphylococcus aureus [3] = test: Antimicrobial activity against Staphylococcus aureus ATCC 29213 assessed as inhibition of visible growth of bacteria incubated for 20 hrs by broth microdilution method; assay type: functional
Pseudomonas aeruginosa [4] = test: Antimicrobial activity against Pseudomonas aeruginosa PA14 assessed as inhibition of visible growth of bacteria incubated for 20 hrs by broth microdilution method; assay type: functional
Acinetobacter baumannii [5] = test: Antimicrobial activity against Acinetobacter baumannii AB11 assessed as inhibition of visible growth of bacteria incubated for 20 hrs by broth microdilution method; assay type: functional
Streptococcus pyogenes = test: Antimicrobial activity against Streptococcus pyogenes DL02 harboring erythromycin-resistance rRNA methylase B assessed as inhibition of visible growth of bacteria incubated for 20 hrs by broth microdilution method; assay type: functional
Enterococcus faecalis [6] = test: Antimicrobial activity against Enterococcus faecalis JH2-2 assessed as inhibition of visible growth of bacteria incubated for 20 hrs by broth microdilution method; assay type: functional
Enterococcus faecium [7] = test: Antimicrobial activity against Enterococcus faecium MC38 harboring erythromycin resistance rRNA methylase B and oxazolidinone-phenicol transferable resistance gene assessed as inhibition of visible growth of bacteria incubated for 20 hrs by broth microdilution method; assay type: functional
Enterococcus faecalis [8] = test: Antimicrobial activity against Enterococcus faecalis J2 harboring erythromycin-resistance rRNA methylase B and oxazolidinone phenicol transferable resistance gene assessed as inhibition of visible growth of bacteria incubated for 20 hrs by broth microdilution method; assay type: functional
Klebsiella pneumoniae = test: Antimicrobial activity against Klebsiella pneumoniae 9-1 assessed as inhibition of visible growth of bacteria incubated for 20 hrs by broth microdilution method; assay type: functional
Streptococcus agalactiae = test: Antimicrobial activity against Streptococcus agalactiae DL03 harboring erythromycin-resistance rRNA methylase B assessed as inhibition of visible growth of bacteria incubated for 20 hrs by broth microdilution method; assay type: functional
Staphylococcus aureus [9] = test: Antimicrobial activity against Staphylococcus aureus YZSA-21 harboring erythromycin resistance rRNA methylase C assessed as inhibition of visible growth of bacteria incubated for 20 hrs by broth microdilution method; assay type: functional
Staphylococcus aureus [10] = test: Antimicrobial activity against Staphylococcus aureus YZSA-15 harboring erythromycin resistance rRNA methylase C and vancomycin resistance locus assessed as inhibition of visible growth of bacteria incubated for 20 hrs by broth microdilution method; assay type: functional
Pseudomonas aeruginosa [11] = test: Antimicrobial activity against Pseudomonas aeruginosa PA01 assessed as inhibition of visible growth of bacteria incubated for 20 hrs by broth microdilution method; assay type: functional
Enterococcus faecalis [12] = test: Antimicrobial activity against Enterococcus faecalis ES01 harboring erythromycin-resistance rRNA methylase B and vanB-type vancomycin-resistance locus assessed as inhibition of visible growth of bacteria incubated for 20 hrs by broth microdilution method; assay type: functional
Acinetobacter baumannii [13] = test: Antimicrobial activity against Acinetobacter baumannii 7979 assessed as inhibition of visible growth of bacteria incubated for 20 hrs by broth microdilution method; assay type: functional
Salmonella enteritidis = test: Antimicrobial activity against Salmonella enteritis S1 assessed as inhibition of visible growth of bacteria incubated for 20 hrs by broth microdilution method; assay type: functional, Salmonella enterica subsp. enterica serovar Enteritidis; settings: Salmonella enterica
Enterococcus faecium [14] = test: Antimicrobial activity against Enterococcus faecium HFY01 assessed as inhibition of visible growth of bacteria incubated for 20 hrs by broth microdilution method; assay type: functional
Staphylococcus aureus [15] = test: Antimicrobial activity against Staphylococcus aureus YZSA-24 harboring erythromycin resistance rRNA methylase C and methicillin resistance gene resistance locus assessed as inhibition of visible growth of bacteria incubated for 20 hrs by broth microdilution method; assay type: functional

COc1ccc2nc3c(c(C(=O)O)c2c1)CC(C)C/C3=C\c1ccc(-c2ccc(Cl)c(C(F)(F)F)c2)o1 (racemic)
MIC (Enterococcus faecium [1]): > 64 µg/mL
MIC (Streptococcus suis): 64 µg/mL (≈ 121 µM)
MIC (Enterococcus faecalis [2]): 64 µg/mL (≈ 121 µM)
MIC (Staphylococcus aureus [3]): 32 µg/mL (≈ 60.6 µM)

CC1C/C(=C\c2ccc(-c3ccc([N+](=O)[O-])cc3)o2)c2nc3ccccc3c(C(=O)O)c2C1 (racemic)
MIC (Enterococcus faecium [1]): 64 µg/mL (≈ 145 µM)
MIC (Streptococcus suis): > 64 µg/mL
MIC (Enterococcus faecalis [2]): > 64 µg/mL
MIC (Staphylococcus aureus [3]): 64 µg/mL (≈ 145 µM)

CCCCCCCCc1ccc(-c2ccc(/C=C3\CC(C)Cc4c3nc3ccc(OC)cc3c4C(=O)O)cc2)cc1 (racemic)
MIC (Enterococcus faecium [1]): 8 µg/mL (≈ 14.6 µM)
MIC (Streptococcus suis): 32 µg/mL (≈ 58.4 µM)
MIC (Enterococcus faecalis [2]): 16 µg/mL (≈ 29.2 µM)
MIC (Staphylococcus aureus [3]): > 64 µg/mL

CC1C/C(=C\c2ncc([N+](=O)[O-])n2C)c2nc3ccccc3c(C(=O)O)c2C1 (racemic)
MIC (Enterococcus faecium [1]): > 64 µg/mL
MIC (Streptococcus suis): > 64 µg/mL
MIC (Enterococcus faecalis [2]): > 64 µg/mL
MIC (Staphylococcus aureus [3]): > 64 µg/mL

CC1C/C(=C\c2cccc(-c3ccc(Cl)c(C(F)(F)F)c3)c2)c2nc3ccc(O)cc3c(C(=O)O)c2C1 (racemic)
MIC (Enterococcus faecium [1]): 8 µg/mL (≈ 15.3 µM)
MIC (Streptococcus suis): 4 µg/mL (≈ 7.63 µM)
MIC (Enterococcus faecalis [2]): 16 µg/mL (≈ 30.5 µM)
MIC (Staphylococcus aureus [3]): 8 µg/mL (≈ 15.3 µM)

CC1C/C(=C\c2cccc(-c3ccc(Cl)c(C(F)(F)F)c3)c2)c2nc3ccccc3c(C(=O)O)c2C1 (racemic)
MIC (Enterococcus faecium [1]): 4 µg/mL (≈ 7.87 µM)
MIC (Streptococcus suis): > 64 µg/mL
MIC (Enterococcus faecalis [2]): 4 µg/mL (≈ 7.87 µM)
MIC (Staphylococcus aureus [3]): 2 µg/mL (≈ 3.94 µM)

CC1C/C(=C\c2nc(-c3ccc(Cl)c(C(F)(F)F)c3)cs2)c2nc3ccccc3c(C(=O)O)c2C1 (racemic)
MIC (Enterococcus faecium [1]): 32 µg/mL (≈ 62.1 µM)
MIC (Streptococcus suis): 64 µg/mL (≈ 124 µM)
MIC (Enterococcus faecalis [2]): 16 µg/mL (≈ 31.1 µM)
MIC (Staphylococcus aureus [3]): 16 µg/mL (≈ 31.1 µM)

CC1C/C(=C\c2ccc(-c3c(Cl)cc(C(F)(F)F)cc3Cl)cc2)c2nc3ccccc3c(C(=O)O)c2C1 (racemic)
MIC (Enterococcus faecium [1]): 8 µg/mL (≈ 14.7 µM)
MIC (Streptococcus suis): > 64 µg/mL
MIC (Enterococcus faecalis [2]): 8 µg/mL (≈ 14.7 µM)
MIC (Staphylococcus aureus [3]): 4 µg/mL (≈ 7.37 µM)

CC1C/C(=C\c2cccc(-c3cccc(Cl)c3Cl)c2)c2nc3ccccc3c(C(=O)O)c2C1 (racemic)
MIC (Enterococcus faecium [1]): 8 µg/mL (≈ 16.9 µM)
MIC (Streptococcus suis): > 64 µg/mL
MIC (Enterococcus faecalis [2]): 8 µg/mL (≈ 16.9 µM)
MIC (Staphylococcus aureus [3]): 4 µg/mL (≈ 8.43 µM)

Cc1cc(/C=C2\CC(C)Cc3c2nc2ccccc2c3C(=O)O)cc(C)c1Oc1ccc([N+](=O)[O-])cc1 (racemic)
MIC (Enterococcus faecium [1]): 8 µg/mL (≈ 16.2 µM)
MIC (Streptococcus suis): > 64 µg/mL
MIC (Enterococcus faecalis [2]): 16 µg/mL (≈ 32.4 µM)
MIC (Staphylococcus aureus [3]): 4 µg/mL (≈ 8.09 µM)

COc1ccc2nc3c(c(C(=O)O)c2c1)CC(C)C/C3=C\c1ccc(Oc2c(Cl)cc(N)cc2Cl)cc1 (racemic)
MIC (Enterococcus faecium [1]): 8 µg/mL (≈ 14.9 µM)
MIC (Streptococcus suis): 64 µg/mL (≈ 120 µM)
MIC (Enterococcus faecalis [2]): 16 µg/mL (≈ 29.9 µM)
MIC (Staphylococcus aureus [3]): 4 µg/mL (≈ 7.47 µM)

CCCCCCc1ccc(-c2ccc(/C=C3\CC(C)Cc4c3nc3ccc(OC)cc3c4C(=O)O)cc2)cc1 (racemic)
MIC (Enterococcus faecium [1]): 4 µg/mL (≈ 7.7 µM)
MIC (Streptococcus suis): 32 µg/mL (≈ 61.6 µM)
MIC (Enterococcus faecalis [2]): 8 µg/mL (≈ 15.4 µM)
MIC (Staphylococcus aureus [3]): 16 µg/mL (≈ 30.8 µM)

Cc1cc(/C=C2\CC(C)Cc3c2nc2ccccc2c3C(=O)O)cc(C)c1O (racemic)
MIC (Enterococcus faecium [1]): > 64 µg/mL
MIC (Streptococcus suis): > 64 µg/mL
MIC (Enterococcus faecalis [2]): > 64 µg/mL
MIC (Staphylococcus aureus [3]): > 64 µg/mL

CC1C/C(=C\c2ccc(-c3ccc(Cl)c(Cl)c3)o2)c2nc3ccccc3c(C(=O)O)c2C1 (racemic)
MIC (Enterococcus faecium [1]): 16 µg/mL (≈ 34.5 µM)
MIC (Streptococcus suis): > 64 µg/mL
MIC (Enterococcus faecalis [2]): 8 µg/mL (≈ 17.2 µM)
MIC (Staphylococcus aureus [3]): 8 µg/mL (≈ 17.2 µM)

CC1C/C(=C\c2cccc(-c3ccc(Cl)c(C(F)(F)F)c3)c2)c2nc3ccccc3cc2C1 (racemic)
MIC (Enterococcus faecium [1]): > 64 µg/mL
MIC (Streptococcus suis): > 64 µg/mL
MIC (Enterococcus faecalis [2]): > 64 µg/mL
MIC (Staphylococcus aureus [3]): > 64 µg/mL

CC1C/C(=C\c2cc3ccc(Br)cc3s2)c2nc3ccccc3c(C(=O)O)c2C1 (racemic)
MIC (Enterococcus faecium [1]): 64 µg/mL (≈ 138 µM)
MIC (Streptococcus suis): 64 µg/mL (≈ 138 µM)
MIC (Enterococcus faecalis [2]): 16 µg/mL (≈ 34.5 µM)
MIC (Staphylococcus aureus [3]): 16 µg/mL (≈ 34.5 µM)

COc1ccc2nc3c(c(C(=O)O)c2c1)CC(C)C/C3=C\c1cccc(NC(=O)c2cccc(Cl)c2Cl)c1 (racemic)
MIC (Enterococcus faecium [1]): > 64 µg/mL
MIC (Streptococcus suis): > 64 µg/mL
MIC (Enterococcus faecalis [2]): > 64 µg/mL
MIC (Staphylococcus aureus [3]): > 64 µg/mL

CC1C/C(=C\c2ccc(-c3c(Cl)cc(Cl)cc3Cl)cc2)c2nc3ccccc3c(C(=O)O)c2C1 (racemic)
MIC (Enterococcus faecium [1]): 8 µg/mL (≈ 15.7 µM)
MIC (Streptococcus suis): > 64 µg/mL
MIC (Enterococcus faecalis [2]): 4 µg/mL (≈ 7.86 µM)
MIC (Staphylococcus aureus [3]): 2 µg/mL (≈ 3.93 µM)

CC1(C)S[C@@H]2[C@H](NC(=O)[C@H](N)c3ccccc3)C(=O)N2[C@H]1C(=O)O [AMPICILLIN]
MIC (Pseudomonas aeruginosa [4]): > 32 µg/mL
MIC (Enterococcus faecium [1]): 16 µg/mL (≈ 45.8 µM)
MIC (Acinetobacter baumannii [5]): < 0.06 µg/mL
MIC (Streptococcus pyogenes): 0.5 µg/mL (≈ 1.43 µM)
MIC (Streptococcus suis): ≤ 0.5 µg/mL
MIC (Enterococcus faecalis [6]): 16 µg/mL (≈ 45.8 µM)
MIC (Enterococcus faecium [7]): 32 µg/mL (≈ 91.6 µM)
MIC (Enterococcus faecalis [8]): > 32 µg/mL
MIC (Klebsiella pneumoniae): > 32 µg/mL
MIC (Streptococcus agalactiae): 0.5 µg/mL (≈ 1.43 µM)
MIC (Staphylococcus aureus [9]): 1 µg/mL (≈ 2.86 µM)
MIC (Staphylococcus aureus [10]): 2 µg/mL (≈ 5.72 µM)
MIC (Pseudomonas aeruginosa [11]): > 32 µg/mL
MIC (Enterococcus faecalis [12]): 16 µg/mL (≈ 45.8 µM)
MIC (Acinetobacter baumannii [13]): > 32 µg/mL
MIC (Staphylococcus aureus [3]): 1 µg/mL (≈ 2.86 µM)
MIC (Salmonella enteritidis): 32 µg/mL (≈ 91.6 µM)
MIC (Enterococcus faecium [14]): 1 µg/mL (≈ 2.86 µM)
MIC (Staphylococcus aureus [15]): > 32 µg/mL
